We go through 26 compounds from patent US10323022B2, “Pyrrolidinyl urea, pyrrolidinyl thiourea and pyrrolidinyl guanidine compounds as TrkA kinase inhibitors” (Array BioPharma Inc., priority 2011, dated 2019).

Counter-ions that a name gives are not always drawn.

Sequence of TrkA (P04629 33-796): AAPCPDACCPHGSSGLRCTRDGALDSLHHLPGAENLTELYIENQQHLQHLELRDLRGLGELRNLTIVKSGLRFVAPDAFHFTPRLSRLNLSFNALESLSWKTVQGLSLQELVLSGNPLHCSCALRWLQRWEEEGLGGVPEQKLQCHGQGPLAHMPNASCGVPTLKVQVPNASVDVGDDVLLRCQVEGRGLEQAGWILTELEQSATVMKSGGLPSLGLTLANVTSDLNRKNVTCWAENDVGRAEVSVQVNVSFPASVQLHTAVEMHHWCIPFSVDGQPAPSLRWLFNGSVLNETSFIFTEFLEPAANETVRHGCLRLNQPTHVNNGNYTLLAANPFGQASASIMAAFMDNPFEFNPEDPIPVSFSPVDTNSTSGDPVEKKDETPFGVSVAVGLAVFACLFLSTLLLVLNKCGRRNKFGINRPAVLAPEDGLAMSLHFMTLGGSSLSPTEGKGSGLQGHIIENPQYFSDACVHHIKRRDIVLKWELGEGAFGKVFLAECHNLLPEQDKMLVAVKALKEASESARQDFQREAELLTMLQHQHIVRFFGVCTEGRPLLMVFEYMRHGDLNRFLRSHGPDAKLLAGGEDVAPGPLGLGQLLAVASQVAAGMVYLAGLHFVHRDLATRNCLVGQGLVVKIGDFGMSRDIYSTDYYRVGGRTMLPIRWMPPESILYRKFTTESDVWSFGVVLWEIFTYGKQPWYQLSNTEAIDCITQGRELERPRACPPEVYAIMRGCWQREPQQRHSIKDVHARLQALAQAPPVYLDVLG

The assay addresses TrkA (Homo sapiens (Human), UniProt P04629). Kind of assay: TrkA Omnia Assay. It is filed as biochemical. As to conditions: averaged IC50; 20 nM enzyme, 500 μM ATP, 10 μM peptide substrate. An outline of the steps:
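Continuous fluorescent kinase read-out (ex 360 nm, em 485 nm) over 70 min, with initial rates fitted to 4- or 5-parameter logistic curves for IC50. Final conditions: 500 μM ATP, 10 μM Omnia Tyr Peptide #4, 20 nM TrkA, MOPS pH 7.5 buffer with MgCl2 and Triton X-100; enzyme and compound preincubated 10 min at ambient temperature.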
With `COCCN1C[C@@H](NC(=O)Nc2c(C)c(C3CC3)nn2-c2ccccc2)[C@H](c2ccc(F)c(F)c2)C1` [Example 533, 1-(3-cyclopropyl-4-methyl-1-phenyl-1H-pyrazol-5-yl)-3-((3S,4R)-4-(3,4-difluorophenyl)-1-(2-methoxyethyl)pyrrolidin-3-yl)urea], the IC50 (commonly the concentration that inhibits the measured activity by half) was less than 100 nM.

On to `COCCN1C[C@@H](NC(=O)Nc2c(C)c(C3CC3)nn2-c2ccccc2)[C@H](c2ccc(F)cc2)C1` [Example 534, 1-(3-cyclopropyl-4-methyl-1-phenyl-1H-pyrazol-5-yl)-3-((3S,4R)-4-(4-fluorophenyl)-1-(2-methoxyethyl)pyrrolidin-3-yl)urea], for which the IC50 was less than 100 nM.

With `COCCN1C[C@@H](NC(=O)Nc2c(C)c(-c3ccc(=O)n(C(C)C)c3)nn2-c2ccccc2)[C@H](c2ccc(F)c(F)c2)C1` [Example 535, 1-((3S,4R)-4-(3,4-difluorophenyl)-1-(2-methoxyethyl)pyrrolidin-3-yl)-3-(3-(1-isopropyl-6-oxo-1,6-dihydropyridin-3-yl)-4-methyl-1-phenyl-1H-pyrazol-5-yl)urea], the IC50 is less than 100 nM.

`COCCN1C[C@@H](NC(=O)Nc2c(C)c(-c3ccc(=O)n(C(C)C)c3)nn2-c2ccccc2)[C@H](c2ccc(F)cc2)C1` [Example 536, 1-((3S,4R)-4-(4-fluorophenyl)-1-(2-methoxyethyl)pyrrolidin-3-yl)-3-(3-(1-isopropyl-6-oxo-1,6-dihydropyridin-3-yl)-4-methyl-1-phenyl-1H-pyrazol-5-yl)urea]: the IC50 was less than 100 nM.

`COCCN1C[C@@H](NC(=O)Nc2c(C)c(OC[C@H](C)O)nn2-c2ccccc2)[C@H](c2cc(F)cc(F)c2)C1` [Example 537, 1-((3S,4R)-4-(3,5-difluorophenyl)-1-(2-methoxyethyl)pyrrolidin-3-yl)-3-(3-((S)-2-hydroxypropoxy)-4-methyl-1-phenyl-1H-pyrazol-5-yl)urea dihydrochloride] returned an IC50 of less than 100 nM.

In the case of `COCCN1C[C@@H](NC(=O)Nc2c(C)c(OCCN3CCNCC3)nn2-c2ccccc2)[C@H](c2ccc(F)c(F)c2)C1` [Example 538, 1-((3S,4R)-4-(3,5-difluorophenyvl)-1-(2-methoxyethyl)pyrrolidin-3-yl)-3-(4-methyl-1-phenyl-3-(2-(piperazin-1-yl)ethoxy)-1H-pyrazol-5-yl)urea trihydrochloride], the IC50 was less than 100 nM.

`COCCN1C[C@@H](NC(=O)Nc2c(Cl)c(OCc3ccccc3)nn2C)[C@H](c2ccc(F)c(F)c2)C1` [Example 539, 1-(3-(benzyloxy)-4-chloro-1-methyl-1H-pyrazol-5-yl)-3-((3S,4R)-4-(3,4-difluorophenyl)-1-(2-methoxyethyl)pyrrolidin-3-yl)urea] displayed an IC50 of 100 to 1000 nM.

For `COCCN1C[C@@H](NC(=O)Nc2c(C)c(OCC(=O)O)nn2-c2ccccc2)[C@H](c2ccc(F)c(F)c2)C1` [Example 540, 2-((5-(3-((3S,4R)-4-(3,4-difluorophenyl)-1-(2-methoxyethyl)pyrrolidin-3-yl)ureido)-4-methyl-1-phenyl-1H-pyrazol-3-yl)oxy)acetic acid], the IC50 is less than 100 nM.

Consider `CCNC(=O)COc1nn(-c2ccccc2)c(NC(=O)N[C@@H]2CN(CCOC)C[C@H]2c2ccc(F)c(F)c2)c1C` [Example 541, 2-((5-(3-((3S,4R)-4-(3,4-difluorophenyl)-1-(2-methoxyethyl)pyrrolidin-3-yl)ureido)-4-methyl-1-phenyl-1H-pyrazol-3-yl)oxy)-N-ethylacetamide], for which the IC50 is less than 100 nM.

`CCc1c(OCC(C)(C)O)nn(-c2ccccc2)c1NC(=O)N[C@@H]1CN(CCOC)C[C@H]1c1ccc(F)c(F)c1` [Example 542, 1-((3S,4R)-4-(3,4-difluorophenyvl)-1-(2-methoxyethyl)pyrrolidin-3-yl)-3-(4-ethyl-3-(2-hydroxy-2-methylpropoxy)-1-phenyl-1H-pyrazol-5-yl)urea] showed an IC50 of less than 100 nM.

`COCCN1C[C@@H](NC(=O)Nc2c(C)c(OCCN)nn2-c2ccccc2)[C@H](c2ccc(F)c(F)c2)C1` [Example 543, 1-(3-(2-aminoethoxy)-4-methyl-1-phenyl-1H-pyrazol-5-yl)-3-((3S,4R)-4-(3,4-difluorophenyl)-1-(2-methoxyethyl)pyrrolidin-3-yl)urea]: the IC50 is less than 100 nM.

For `COCCN1C[C@@H](NC(=O)Nc2c(C)c(OCCNS(C)(=O)=O)nn2-c2ccccc2)[C@H](c2ccc(F)c(F)c2)C1` [Example 544, N-(2-((5-(3-((3S,4R)-4-(3,4-difluorophenyl)-1-(2-methoxyethyl)pyrrolidin-3-yl)ureido)-4-methyl-1-phenyl-1H-pyrazol-3-yl)oxy)ethyl)methanesulfonamide], the 50% inhibitory concentration (IC50) is less than 100 nM.

As to `COCCN1C[C@@H](NC(=O)Nc2c(C)c(OCCNC(C)=O)nn2-c2ccccc2)[C@H](c2ccc(F)c(F)c2)C1` [Example 545, N-(2-((5-(3-((3S,4R)-4-(3,4-difluorophenyl)-1-(2-methoxyethyl)pyrrolidin-3-yl)ureido)-4-methyl-1-phenyl-1H-pyrazol-3-yl)oxy)ethyl)acetamide], the IC50 was less than 100 nM.

Take `COCCN1C[C@@H](NC(=O)Nc2c(C)c(OCCN3CCN(C(C)=O)CC3)nn2-c2ccccc2)[C@H](c2ccc(F)c(F)c2)C1` [Example 546, 1-(3-(2-(4-acetylpiperazin-1-yl)ethoxy)-4-methyl-1-phenyl-1H-pyrazol-5-yl)-3-((3S,4R)-4-(3,4-difluorophenyl)-1-(2-methoxyethyl)pyrrolidin-3-yl)urea]: the IC50 is less than 100 nM.

In turn, `COCCN1C[C@@H](NC(=O)Nc2c(C)c(OCC(N)=O)nn2-c2ccccc2)[C@H](c2ccc(F)c(F)c2)C1` [Example 547, 2-((5-(3-((3S,4R)-4-(3,4-difluorophenyl)-1-(2-methoxyethyl)pyrrolidin-3-yl)ureido)-4-methyl-1-phenyl-1H-pyrazol-3-yl)oxy)acetamide] gave an IC50 of less than 100 nM.

`CCOc1nn(-c2ccccc2)c(NC(=O)N[C@@H]2CN(CCOC)C[C@H]2c2ccc(F)c(F)c2)c1NC(=O)C(F)(F)F` [Example 548, N-(5-(3-((3S,4R)-4-(3,4-difluorophenyl)-1-(2-methoxyethyl)pyrrolidin-3-yl)ureido)-3-ethoxy-1-phenyl-1H-pyrazol-4-yl)-2,2,2-trifluoroacetamide] gave an IC50 of 100 to 1000 nM.

On to `CCOc1nn(-c2ccccc2)c(NC(=O)N[C@@H]2CN(CCOC)C[C@H]2c2ccc(F)c(F)c2)c1N` [Example 549, 1-(4-amino-3-ethoxy-1-phenyl-1H-pyrazol-5-yl)-3-((3S,4R)-4-(3,4-difluorophenyl)-1-(2-methoxyethyl)pyrrolidin-3-yl)urea], for which the IC50 is less than 100 nM.

In the case of `CCOc1nn(-c2ccccc2)c(NC(=O)N[C@@H]2CN(CCOC)C[C@H]2c2ccc(F)c(F)c2)c1CCO` [Example 550, 1-((3S,4R)-4-(3,4-difluorophenyvl)-1-(2-methoxyethyl)pyrrolidin-3-yl)-3-(3-ethoxy-4-(2-hydroxyethyl)-1-phenyl-1H-pyrazol-5-yl)urea], the IC50 was less than 100 nM.

In turn, `COCCN1C[C@@H](NC(=O)Nc2c(C)c(OCCN3CCN(C)CC3)nn2-c2ccccc2)[C@H](c2ccc(F)c(F)c2)C1` [Example 551, 1-((3S,4R)-4-(3,4-difluorophenyl)-1-(2-methoxyethyl)pyrrolidin-3-yl)-3-(4-methyl-3-(2-(4-methylpiperazin-1-yl)ethoxy)-1-phenyl-1H-pyrazol-5-yl)urea trihydrochloride] yielded an IC50 of less than 100 nM.

Regarding `COCCN1C[C@@H](NC(=O)Nc2c(C)c(OCC(=O)N3CCOCC3)nn2-c2ccccc2)[C@H](c2ccc(F)c(F)c2)C1` [Example 552, 1-((3S,4R)-4-(3,4-difluorophenyvl)-1-(2-methoxyethyl)pyrrolidin-3-yl)-3-(4-methyl-3-(2-morpholino-2-oxoethoxy)-1-phenyl-1H-pyrazol-5-yl)urea], the IC50 was less than 100 nM.

`COCCN1C[C@@H](NC(=O)Nc2c(Br)c(C(=O)O)nn2-c2ccccc2)[C@H](c2ccc(F)c(F)c2)C1` [Example 553, 4-bromo-5-(3-((3S,4R)-4-(3,4-difluorophenyl)-1-(2-methoxyethyl)pyrrolidin-3-yl)ureido)-1-phenyl-1H-pyrazole-3-carboxylic acid]: the IC50 fell in the range of 100 to 1000 nM.

`CNC(=O)c1nn(-c2ccccc2)c(NC(=O)N[C@@H]2CN(CCOC)C[C@H]2c2ccc(F)c(F)c2)c1Br` [Example 554, 4-bromo-5-(3-((3S,4R)-4-(3,4-difluorophenyl)-1-(2-methoxyethyl)pyrrolidin-3-yl)ureido)-N-methyl-1-phenyl-1H-pyrazole-3-carboxamide] gave an IC50 of less than 100 nM.

`COCCN1C[C@@H](NC(=O)Nc2c(Br)c(C(=O)NOC)nn2-c2ccccc2)[C@H](c2ccc(F)c(F)c2)C1` [Example 555, 4-bromo-5-(3-((3S,4R)-4-(3,4-difluorophenyl)-1-(2-methoxyethyl)pyrrolidin-3-yl)ureido)-N-methoxy-1-phenyl-1H-pyrazole-3-carboxamide] registered an IC50 of less than 100 nM.

`COCCN1C[C@@H](NC(=O)Nc2c(Cl)c(-c3cnn(CCOC)c3)nn2-c2ccccc2)[C@H](c2ccc(F)c(F)c2)C1` [Example 556, 1-(4-chloro-1′-(2-methoxyethyl)-1-phenyl-1H, 1′H-[3,4′-bipyrazol]-5-yl)-3-((3S,4R)-4-(3,4-difluorophenyl)-1-(2-methoxyethyl)pyrrolidin-3-yl)urea] showed a 50% inhibitory concentration (IC50) of less than 100 nM.

For the compound `COCCN1C[C@@H](NC(=O)Nc2c(C)c(OC[C@@H](O)CO)nn2-c2ccccc2)[C@H](c2cc(F)cc(F)c2)C1` [Example 557, 1-((3S,4R)-4-(3,5-difluorophenyl)-1-(2-methoxyethyl)pyrrolidin-3-yl)-3-(3-((S)-2,3-dihydroxvpropoxy)-4-methyl-1-phenyl-1H-pyrazol-5-yl)urea], the half-maximal inhibitory concentration (IC50) was less than 100 nM.

The compound `COCCN1C[C@@H](NC(=O)Nc2c(C)c(OC[C@H](O)CO)nn2-c2ccccc2)[C@H](c2cc(F)cc(F)c2)C1` [Example 558, 1-((3S,4R)-4-(3,5-difluorophenyl)-1-(2-methoxyethyl)pyrrolidin-3-yl)-3-(3-((R)-2,3-dihydroxypropoxy)-4-methyl-1-phenyl-1H-pyrazol-5-yl)urea] came in with an IC50 of less than 100 nM.
